From US9827292B2, “Use of KGF in the treatment of menopausal disorders” (Università degli Studi di Roma “La Sapienza”, priority 2012, dated 2017) come the findings set out here.

A short description of data set [1]: Serum concentrations of E2 and KGF by ELISA in treated mice. It is filed as in vivo, mouse. Conditions: daily treatment for 60 days, ovariectomised mice, FIG. 7A. Here is the method: The mouse strain CD1 was used in this study (Charles Rivers). The mice were held in a standard housing for laboratory animals with controlled lighting (12 h/day) and temperature (25±1° C.) and were provided with food and water ab libitum. All the experimental protocols concerning animals were in line with the Guidelines of Sapienza University for the care and use of laboratory animals and were approved by the Ethical Committee of the aforesaid institution. Forty female mice were subjected to an ovariectomy for the purpose of inducing vaginal atrophy and were administered a diet of Altromin C1000 without phytoestrogens (Altromin, Lage, Germany) for the duration of the experiments. After 30 days, the mice were treated locally, introducing daily into the vaginal canal 25 μl of hydrogel loaded with KGF (10 or 30 ng/day) or with E2 (30 ng/day or 1 μg/day). A control group was treated only with hydrogel. After 60 days of treatment, the mice were killed and the vaginas were immediately explanted, fixed in formalin and processed for histological analysis.
The concentrations of E2 and KGF in the serum of treated mice were measured using an ELISA standard kit (R & D Systems, Minneapolis, Minn., USA). The sensitivity of the ELISA assay was ≧10 pg/mL. Standard preparations of E2 or KGF were used as internal controls. The values are presented as mean±standard deviation. […]

In data set [2] the test system is KGFR. Nature of the data set: KGFR mRNA expression by real-time PCR in MCF-7 cells. Format: cell-based, human. As to conditions: E2 20 ng/ml, 24 h, normalised to 18s, FIG. 3B. Here is the method: (§1) The oestrogen receptor α-positive MCF-7 human breast adenocarcinoma cell line, acquired from American Type Culture Collection (no. HTB-22, ATCC-LGC Promochem, Teddington, UK), was cultured in Dulbecco's modified eagle's medium (DMEM; Invitrogen, Karlsruhe, Germany), supplemented with 10% foetal bovine serum (FBS; Invitrogen) and antibiotics. Primary cultures of human oestrogen-sensitive keratinocytes (KCs) were established from 1 cm^2 full-thickness mucosal biopsy of the vaginal vestibule. Following enzymatic dissociation, the keratinocytes were seeded onto culture plates coated with collagen IV (10 mg/ml), as previously reported [Panici et al, 2007], and were maintained in basal medium of the keratinocytes (KBM, Lonza) supplemented with aliquots of KGM (Lonza), with medium change twice a week. […]
The cells were harvested and the total RNA was extracted with the use of TRIzol reagent (Invitrogen). cDNA was generated with oligo (dT) from 1 μg of RNA using the SuperScript III reverse transcriptase kit (Invitrogen). After reverse transcription, the abundance of KGFR in MCF-7 cells treated and untreated with E2 was quantified by Q-RT-PCR. […] Relative quantification was performed using mRNA 18s as an endogenous control. The data were expressed as a rise of mRNA of KGFR compared to the control.

Data set [3] relates to KGFR. Nature of the data set: KGFR protein expression by Western blot in MCF-7 cells. Format: cell-based, human. As to conditions: E2 20 ng/ml, 24 h, FIG. 3A. Here is the method:
as §1
(§2) MCF-7 cells untreated or treated with KGF or E2 were lysed in RIPA buffer. […] The bound antibody was detected by enhanced chemiluminescence detection reagents (Pierce Biotechnology, Inc, Rockford, Ill., USA), according to manufacturer's instructions. […] Densitometric analysis was performed using Quantity One Program (Bio-Rad Laboratories srl, Segrate, MI, Italy).

The next data set concerns MAPK ERK1 and 2. As to the kind of experiment: Western blot of ERK phosphorylation in MCF-7 cells. Format: cell-based, human. Conditions: 20 ng/ml, FIG. 2A; for activation (phosphorylation) of ERK1 and 2: 5 and 30 minutes of treatment. How it is done:
The oestrogen receptor α-positive MCF-7 human breast adenocarcinoma cell line, acquired from American Type Culture Collection (no. HTB-22, ATCC-LGC Promochem, Teddington, UK), was cultured in Dulbecco's modified eagle's medium (DMEM; Invitrogen, Karlsruhe, Germany), supplemented with 10% foetal bovine serum (FBS; Invitrogen) and antibiotics. Primary cultures of human oestrogen-sensitive keratinocytes (KCs) were established from 1 cm^2 full-thickness mucosal biopsy of the vaginal vestibule. Following enzymatic dissociation, the keratinocytes were seeded onto culture plates coated with collagen IV (10 mg/ml), as previously reported [Panici et al, 2007], and were maintained in basal medium of the keratinocytes (KBM, Lonza) supplemented with aliquots of KGM (Lonza), with medium change twice a week. For all the experiments with 17β-oestradiol (E2) and tamoxifen, the MCF-7 cells were cultivated in DMEM without phenol red with 10% FBS treated with dextran/carbon (Invitrogen), and the KCs were transferred to a steroid medium of reduced concentration (KGM without EGF and BPE). Both MCF-7 and KC were deprived of serum for 4 hours and then treated for 48 h with human recombinant KGF (Upstate Biotechnology, Lake Placid, N.Y.), E2 (Sigma-Aldrich, Milan, Italy), tamoxifen (Sigma-Aldrich, 100 nM) or combinations thereof.
MCF-7 cells untreated or treated with KGF or E2 were lysed in RIPA buffer. Total proteins (50-150 μg) were broken down under reducing conditions by 7%-10% SDS-PAGE and transferred to Immobilon-FL membranes (Millipore, Billerica, Mass.). The membranes were blocked in TBS containing 0.5% Tween 20 (TBS-T) and 5% milk for 1 hour at 25° C. and were then washed twice for 20 minutes in each case in TBS-T. The membranes were incubated overnight at 4° C. with the primary antibody. […] The bound antibody was detected by enhanced chemiluminescence detection reagents (Pierce Biotechnology, Inc, Rockford, Ill., USA), according to manufacturer's instructions. […] Densitometric analysis was performed using Quantity One Program (Bio-Rad Laboratories srl, Segrate, MI, Italy).

The subject of another data set is ER alpha. Nature of the data set: Western blot of ER alpha phosphorylation (Ser118) in MCF-7 cells. Format: cell-based, human. As to conditions: 20 ng/ml, FIG. 2D. How it is done: as §1, §2

Turning to `C[C@]12CC[C@@H]3c4ccc(O)cc4CC[C@H]3[C@@H]1CC[C@@H]2O` [E2, 17β-oestradiol], in data set [1], the “release into the bloodstream (serum levels by ELISA) after local vaginal treatment” value is reported as “reached the bloodstream even after treatment at low doses”. Also, the “KGFR mRNA expression compared to untreated cells” value with KGFR [2] was determined as 2.2 fold increase. Moreover, the KGFR protein level entry in the data set on KGFR [3] is “a rise in the protein KGFR”. Further, in the data set with MAPK ERK1 and 2, the “activation (phosphorylation) of ERK1 and 2” value was “less consistent rise in the levels of phosphorylation of ERK1 and 2 limited to 5 min of treatment”. In the data set with MAPK ERK1 and 2 (30 min), the “activation of ERK 1 and 2 at longer times” value is recorded as “considerably reduced”.

B1: keratinocyte growth factor (protein, listed as Homo sapiens)
chain: MHKWILTWILPTLLYRSCFHIICLVGTISLACNDMTPEQMATNVNCSSPERHTRSYDYMEGGDIRVRRLFCRTQWYLRIDKRGKVKGTQEMKNNYNIMEIRTVAVGIVAIKGVESEFYLAMNKEGKLYAKKECNEDCNFKELILENHYNTYASAKWTHNGGEMFVALNQKGIPVRGKKTKKEQKTAHFLPMAIT
notes: human recombinant KGF (Upstate Biotechnology)
As for B1, the “phosphorylation of ER alpha (Ser118)” value in the data set on ER alpha was “able to induce, equally to E2, phosphorylation of ER alpha”. Besides, in the data set on MAPK ERK1 and 2, the “activation (phosphorylation) of ERK1 and 2” value is “consistent and constant activation of MAPK”.
